Test results taken from patent publication US20250313563A1, “GLYCOGEN SYNTHASE KINASE 3 INHIBITORS AND USES THEREOF” (The Broad Institute, Inc., priority 2022, published 2025).
Like-named read-outs stand apart in the source and are kept apart here.

How the values were obtained:
[1] = target: GSK3α (GST-full length GSK3α) (Homo sapiens (Human), UniProt P49840); assay: GSK3α TR-FRET kinase assay; assay type: biochemical
In short: (§1)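 Full-length GST-tagged human enzyme (1 nM) is exposed to test compound for 30 min before substrates are added. Phosphorylation of a primed biotinylated glycogen synthase peptide proceeds 100 min at room temperature at low ATP (4 μM α; 2 μM β) or high ATP (1 mM). Product is quantified by TR-FRET.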

[2] = target: GSK3b (GST-full length GSK3b) (Homo sapiens (Human), UniProt P49841); assay: GSK3b TR-FRET kinase assay; assay type: biochemical
Chain of GSK3b (GST-full length GSK3b) (P49841 whole entry): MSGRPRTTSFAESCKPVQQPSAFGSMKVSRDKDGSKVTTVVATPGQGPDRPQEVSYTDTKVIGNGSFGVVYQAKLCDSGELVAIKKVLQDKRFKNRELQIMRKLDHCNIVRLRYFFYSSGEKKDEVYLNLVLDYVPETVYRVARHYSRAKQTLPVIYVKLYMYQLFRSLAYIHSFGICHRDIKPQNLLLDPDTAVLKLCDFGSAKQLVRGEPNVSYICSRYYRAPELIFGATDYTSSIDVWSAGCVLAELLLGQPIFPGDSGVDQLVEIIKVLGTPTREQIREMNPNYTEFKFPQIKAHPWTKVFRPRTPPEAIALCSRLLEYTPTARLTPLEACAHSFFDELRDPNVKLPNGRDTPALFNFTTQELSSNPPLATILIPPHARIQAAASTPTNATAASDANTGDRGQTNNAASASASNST
In short: as §1

[3] = 1 nM GSK3α, 4 μM ATP, 30 minute preincubation, geometric mean, read-out: GSK3-A TR-FRET BIOCHEMICAL (TR-FRET), GMean, IC50
[4] = 1 nM GSK3b, 2 μM ATP, 30 minute preincubation, geometric mean, read-out: GSK3-B TR-FRET BIOCHEMICAL (TR-FRET), GMean, IC50
[5] = 1 nM GSK3α, 4 μM ATP, 30 minute preincubation, read-out: GSK3-A TR-FRET BIOCHEMICAL (TR-FRET), IC50
[6] = 1 nM GSK3b, 2 μM ATP, 30 minute preincubation, read-out: GSK3-B TR-FRET BIOCHEMICAL (TR-FRET), IC50
[7] = read-out: GSK3-A (TR-FRET 1 mM ATP), GMean, IC50, 1 mM ATP, geometric mean
[8] = read-out: GSK3-B (TR-FRET 1 mM ATP), GMean, IC50, 1 mM ATP, geometric mean

Chain of GSK3α (GST-full length GSK3α) (P49840 whole entry): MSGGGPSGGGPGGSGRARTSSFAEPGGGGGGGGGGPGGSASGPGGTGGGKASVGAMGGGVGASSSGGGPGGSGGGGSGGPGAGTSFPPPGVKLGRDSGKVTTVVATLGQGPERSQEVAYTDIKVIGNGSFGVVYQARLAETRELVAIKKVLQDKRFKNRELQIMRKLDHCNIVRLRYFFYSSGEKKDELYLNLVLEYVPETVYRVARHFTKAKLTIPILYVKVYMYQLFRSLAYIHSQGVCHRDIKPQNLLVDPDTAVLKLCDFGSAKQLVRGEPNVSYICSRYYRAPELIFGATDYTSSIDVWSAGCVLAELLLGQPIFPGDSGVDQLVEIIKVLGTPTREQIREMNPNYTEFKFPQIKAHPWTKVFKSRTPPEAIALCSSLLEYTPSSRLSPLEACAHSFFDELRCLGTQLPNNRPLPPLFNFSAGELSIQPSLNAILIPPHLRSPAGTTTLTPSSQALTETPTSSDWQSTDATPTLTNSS

| Structure (SMILES) | IC50 [1, 3] [nM] | IC50 [2, 4] [nM] | other results |
| --- | --- | --- | --- |
| CCC1(c2cccc(-c3ccnc(C)c3)c2)C2=C(CC3(CCOC3)NC2=O)Nc2n[nH]cc21 (stereo not drawn) [Compound 948148] | 1000 to 5000 | > 5000 |  |
| CC[C@]1(c2cccc(-c3ccnc(C)c3)c2)C2=C(C[C@]3(CCOC3)NC2=O)Nc2n[nH]cc21 [Compound 948149] | ≤ 100 | 100 to 1000 |  |
| CCC1(c2cccc(-c3ccnc4nc(C)ccc34)c2)C2=C(CC(C)(C)NC2=O)Nc2n[nH]cc21 (stereo not drawn) [Compound 948151] | 100 to 1000 | > 5000 |  |
| CCC1(c2cccc(-c3ccnc(C)c3)c2)C2=C(CC3(CCCOC3)NC2=O)Nc2n[nH]cc21 (stereo not drawn) [Compound 948152] | ≤ 100 | 100 to 1000 |  |
| CCC1(c2cccc(-c3ccnc(C)c3)c2)C2=C(CC3(CCCOC3)NC2=O)Nc2n[nH]cc21 (stereo not drawn) [Compound 948153] | > 5000 | > 5000 |  |
| CC1(C)CC(=O)C2=C(C1)Nc1n[nH]cc1[C@]21COC2(CN(C(=O)C(F)(F)F)C2)C1 [Compound 948156] |  |  | IC50 [1, 5]: ≤ 100 nM; IC50 [2, 6]: 100 to 1000 nM |
| CCC1(c2cccc(N(C)c3ncccn3)c2)C2=C(CC(C)(C)NC2=O)Nc2n[nH]c(C(F)(F)F)c21 (stereo not drawn) [Compound 948176] | ≤ 100 | ≤ 100 |  |
| CCC1(c2cccc(S(=O)(=O)CC3CC3)c2)C2=C(CC(C)(C)NC2=O)Nc2n[nH]cc21 (stereo not drawn) [Compound 948177] | ≤ 100 | 100 to 1000 |  |
| CCC1(c2cccc(S(=O)(=O)CC3CC3)c2)C2=C(CC(C)(C)NC2=O)Nc2n[nH]c(C(F)(F)F)c21 (stereo not drawn) [Compound 948179] | ≤ 100 | ≤ 100 |  |
| CCC1(c2cccc(-c3cncn3C)c2)C2=C(CC(C)(C)NC2=O)Nc2n[nH]c(C(F)(F)F)c21 (stereo not drawn) [Compound 948180] | ≤ 100 | ≤ 100 |  |
| CC[C@]1(c2cccc(-c3ccnc(C)c3C)c2)C2=C(CC(C)(C)NC2=O)Nc2n[nH]c(C(F)(F)F)c21 [Compound 948181] | 100 to 1000 | 100 to 1000 |  |
| CC[C@]1(c2cccc(-c3ccnc(C)c3C)c2)C2=C(CC(C)(C)NC2=O)Nc2n[nH]cc21 [Compound 948184] | ≤ 100 | 100 to 1000 | IC50 [1, 7]: 100 to 1000 nM; IC50 [2, 8]: 1000 to 5000 nM |
| CCC1(c2cccc(-c3ccnc(C)c3C)c2)C2=C(CC(C)(C)NC2=O)Nc2n[nH]c(C(F)(F)F)c21 (stereo not drawn) [Compound 948185] | ≤ 100 | ≤ 100 | IC50 [1, 7]: ≤ 100 nM; IC50 [2, 8]: ≤ 100 nM |
| CCC1(c2cccc(-c3ccnc(C)c3C)c2)C2=C(CC(C)(C)NC2=O)Nc2n[nH]c(C)c21 (stereo not drawn) [Compound 948187] | ≤ 100 | ≤ 100 |  |
| CCC1(c2cccc(C(F)(F)F)c2)C2=C(Nc3n[nH]cc31)c1ccccc1C2=O (stereo not drawn) [Compound 948205] |  |  | IC50 ([1]; 1 nM GSK3α, 4 μM ATP, 30 minute preincubation, Table 16, read-out: GSK3-A TR-FRET BIOCHEMICAL (TR-FRET), IC50): ≤ 100 nM; IC50 ([1]; GSK3-A (TR-FRET 1 mM ATP), GMean, IC50, 1 mM ATP, geometric mean): 100 to 1000 nM; IC50 ([2]; 1 nM GSK3b, 2 μM ATP, 30 minute preincubation, Table 16, read-out: GSK3-B TR-FRET BIOCHEMICAL (TR-FRET), IC50): ≤ 100 nM; IC50 ([2]; GSK3-B (TR-FRET 1 mM ATP), GMean, IC50, 1 mM ATP, geometric mean): 100 to 1000 nM |
| Cc1cc(C)cc(C(=O)N2CC3(C2)CC2(CO3)C3=C(CC(C)(C)CC3=O)Nc3n[nH]cc32)c1 (stereo not drawn) [Compound 948222] |  |  | IC50 [1, 5]: 100 to 1000 nM; IC50 [2, 6]: 1000 to 5000 nM |
| Cc1cc(C)cc(C(=O)N2CC3(C2)C[C@]2(CO3)C3=C(CC(C)(C)CC3=O)Nc3n[nH]cc32)c1 [Compound 948223] |  |  | IC50 [1, 5]: ≤ 100 nM; IC50 [1, 7]: 100 to 1000 nM; IC50 [2, 6]: ≤ 100 nM; IC50 [2, 8]: 100 to 1000 nM |
| CC[C@@]1(c2cccc(C(F)(F)F)c2)C2=C(CCN(c3ccc(F)cc3)C2=O)Nc2n[nH]cc21 [Compound 948224] | ≤ 100 | 100 to 1000 |  |
| CC[C@]1(c2cccc(C(F)(F)F)c2)C2=C(CCN(c3ccc(F)cc3)C2=O)Nc2n[nH]cc21 [Compound 948225] | 1000 to 5000 | > 5000 |  |
| CC[C@]1(c2cccc(C(F)(F)F)c2)C2=C(CCN(c3ccc(OC)cc3)C2=O)Nc2n[nH]cc21 [Compound 948227] | 1000 to 5000 | > 5000 |  |
| CCC1(c2cccc(C(F)(F)F)c2)C2=C(CCN(c3ccc(C)cc3)C2=O)Nc2n[nH]cc21 (stereo not drawn) [Compound 948241] | ≤ 100 | 100 to 1000 |  |
| CCC1(c2cccc(-c3ccnc(C)c3F)c2)C2=C(CC(C)(C)NC2=O)Nc2n[nH]c(C(F)(F)F)c21 (stereo not drawn) [Compound 948297] | ≤ 100 | ≤ 100 |  |
| CC1(C)CC(=O)C2=C(C1)Nc1n[nH]cc1C21CN(c2ccccc2)C1 [Compound 948298] |  |  | IC50 ([1]; 1 nM GSK3α, 4 μM ATP, 30 minute preincubation, Table 16, read-out: GSK3-A TR-FRET BIOCHEMICAL (TR-FRET)): ≤ 100 nM; IC50 ([2]; 1 nM GSK3b, 2 μM ATP, 30 minute preincubation, Table 16, read-out: GSK3-B TR-FRET BIOCHEMICAL (TR-FRET)): ≤ 100 nM |
